Patent publication US20220257541A1, “Lacosamide for the Treatment of ADD/ADHD” (priority 2019, published 2022)

How the values were obtained:
[1] = test system: voltage-gated sodium channels; details: cited from earlier work
[2] = test system: children and adolescents with ADHD syndrome; experiment: Case Study 3: Wisconsin Card Sorting Test (WCST) Flexibility; type: in vivo, human
Protocol: (§1) These tests offered an objective element that contributed to the establishment of the diagnosis.
(§2) Neuropsychological evaluation was repeated after six months on medication, at the end of the study. These evaluations were guided by trained neuropsychologists. Four different evaluations were conducted: Continuous Performance Test (CPT)1, STROOP-P test, Wisconsin Card sorting Test and the Non Verbal Intelligence Test.
(§3) The patients were assessed using the Wisconsin Card Sorting Test (WCST), which is used to measure higher-level cognitive processes, such as attention, perseverance, abstract thinking, and set shifting. It is particularly used in clinical fields to measure perseverative behaviours that refer to an individual's insistence on wrong behaviour.

[3] = test system: children and adolescents with ADHD syndrome; experiment: Case Study 3: Test of Nonverbal Intelligence (TONI-2); type: in vivo, human
Protocol: as §1, §2
The patients were assessed using the Test of Nonverbal Intelligence (TONI-2), which is a language-free measure of abstract problem-solving ability.

[4] = test system: children and adolescents with ADHD syndrome; experiment: Case Study 3: STROOP-P test; type: in vivo, human
Protocol: as §1, §2
The patients were assessed using the STROOP-P test, which is used to assess the ability to inhibit cognitive interference that occurs when the processing of a specific stimulus feature impedes the simultaneous processing of a second stimulus attribute, well-known as the Stroop Effect.

[5] = test system: patient with ADHD of the combined type; experiment: Case Study 1: lacosamide mono-therapy in a child with ADHD; type: in vivo, human
Protocol: We present the case study of a child suffering from ADHD (with no comorbidity such as epilepsy or bipolar disorder). The child was treated with a lacosamide mono-therapy for several weeks based on the conventional treatment regime for lacosamide in children (for the treatment of epilepsy and/or bipolar disorder).
This case study describes the case of a person (“the patient”) with ADHD of the combined type. The patient had not previously been treated with any psychotropic drugs.
Before initiating the selected drug treatment, the patient underwent a full medical examination. In addition, reports from their school teachers as well as parents were collected.
Lacosamide was administered to the patient following the approved treatment regimen for lacosamide (Vimpat®) in epileptic children from 4 years of age.
The treatment was delivered twice a day and went on for >8 weeks.

[6] = test system: AMPA, kainate, NMDA, GABAA, GABAB, dopaminergic, serotonergic, adrenergic, muscarinic or cannabinoid receptors; details: cited from earlier work
[7] = test system: children and adolescents with ADHD syndrome; experiment: Case Study 3: Tutors evaluation pre to post treatment (DSM-V questionnaire); type: in vivo, human
Protocol: The Tutors Pre-Post Evaluation (self-administrated) was performed at the end of the study. This assessment required the person responsible for the patient's everyday life and care to evaluate the progression through the period of the study, including intellectual and behavioural changes.
The tutors have evaluated the patients using the DSM-V questionnaire, which is typically used as a standard to classify mental disorders by mental health professionals in the United States.

[8] = test system: children and adolescents with ADHD syndrome; experiment: Case Study 3: neuropsychological results analysis (executive function, attention); type: in vivo, human; details: after six months on medication
Protocol: as §2
We measured pedagogical values and characteristics of the executive function (Reasoning, Cognitive Flexibility, Attentional function, Intellectual Quotient, impulse inhibition, Perseveration resistance) throughout the course of the treatment with lacosamide.

[9] = test system: children and adolescents with ADHD syndrome; experiment: Case Study 3: Wisconsin Card Sorting Test (WCST) Reasoning; type: in vivo, human; details: second evaluation
Protocol: as §1, §2, §3

Question: What does the source list for `COC[C@@H](NC(C)=O)C(=O)NCc1ccccc1` [lacosamide, (2R)-2-(acetylamino)-N-benzyl-3-methoxypropanamide]?
Answer: fast inactivation of voltage-gated sodium channels [1]: without affecting; slow inactivation of voltage-gated sodium channels [1]: enhances; cognitive flexibility ([2]; after six months on medication): improving; patients with Average and High Average scores, WCST Flexibility ([2]; second evaluation, 25% in the first evaluation): 50%; patients in the lowest two categories (Mild and Severe Deterioration), WCST Flexibility ([2]; second evaluation, 41.7% in the first evaluation): 16.6%; non-verbal reasoning: number of subjects who reached the high average level ([3]; after six months on medication): doubling; patients scoring high average in TONI-2 ([3]; end of the tested period, from 16.7%): 33.3%; patients scoring average in TONI-2 ([3]; end of the tested period, from 50%): 58.3%; ability to inhibit cognitive interference ([4]; measured in both cerebral hemispheres): positive but to a limited extent; patients with Average result, STROOP-P ([4]; second test, 8.3% in the first evaluation): 25%; patients with Severe Deterioration, STROOP-P ([4]; second test, 25% initially): 8.3%; tolerance of the maximum dose administered ([5]; 250 mg/day): no signs of intolerance or inadequacy; tolerance of the dose ([5]; Day 8, 25 mg every 12 hours (50 mg/day)): tolerated the dose well; behaviour, sleeping activity, cognitive functionality ([5]; Day 8, 50 mg/day): No improvement; adverse reaction observed ([5]; Day 8, 50 mg/day, ceased after the first few days of treatment): sporadic headaches; quality of sleep or cognitive functionality ([5]; Day 15, 100 mg/day): No improvement; quality of sleep ([5]; Day 23, 75 mg every 12 hours (150 mg/day)): Improvement; cognitive functionality ([5]; Day 23, 150 mg/day): improved; lethargic napping in the afternoon ([5]; Day 32, after increase to 200 mg/day, symptoms subsequently became milder): initially replaced with agitation and hyperactivity; behaviour at school and home ([5]; Day 36, 200 mg/day): consistent improvement; aggression or irritability at home ([5]; Day 49, 125 mg every 12 hours (250 mg/day)): did not show any aggression or irritability; conversation in consultation ([5]; Day 49, 250 mg/day): able to sustain longer logical conversations, at least partially; dysphasia ([5]; Day 63, 250 mg/day): gradual improvement; hyperactivity ([5]; Day 63, 250 mg/day): no signs of hyperactivity; quality of sleep ([5]; Day 63, 250 mg/day): dramatically improved; dose after which sleep pattern and vegetative functions began to stabilize ([5]; administered as two separate 75 mg doses): 150 mg/day; dose at which higher functions were stabilized ([5]; administered as two separate 100 mg doses): ~200 mg/day; ADHD symptomatology ([5]; child, mono-therapy for several weeks): regressed dramatically; secondary reactions or effects ([5]; twice a day for >8 weeks): No secondary reactions or effects were observed; effect on AMPA, kainate, NMDA, GABAA, GABAB, dopaminergic, serotonergic, adrenergic, muscarinic or cannabinoid receptors [6]: does not affect; behaviour, tutors' DSM-V questionnaire [7]: significantly improved across all tested elements; Visual Attention, Perseveration Resistance and Impulse Inhibition [8]: did not show the expected improvement; indicator Attentional Difficulty [8]: improvement; variables of distraction and impulsivity [8]: no impact; patients in Severe Deterioration category, WCST Reasoning ([9]; 50% in the first evaluation): 25%; patients in the 3 highest categories, WCST Reasoning ([9]; from 41.7%): 58.3%
